Tests used:
rat [1] = conditions: Prenatal developmental toxicity study, sprague dawley, Oral, Gavage/Intubation, dose end: 15 GD
rat [2] = conditions: Subchronic dermal toxicity, sprague dawley, Topical, dose end: 13 week, group: systemic, systemic / in life observation / clinical signs / erythema
rat [3] = conditions: Combined chronic toxicity/carcinogenicity, sprague dawley, Oral, Feed, dose end: 2 year, group: systemic
dog [4] = conditions: Subchronic oral toxicity in nonrodent, beagle, Feed, dose end: 3 month, group: systemic
rat [5] = conditions: Prenatal developmental toxicity study, other, Oral, Gavage/Intubation, dose end: 15 GD
mouse [6] = conditions: Carcinogenicity; cd1; Oral; Feed; dose end: 78 week; group: systemic; systemic / organ weight / liver / nos + systemic / pathology microscopic / liver / hypertrophy + systemic / pathology microscopic / liver / …
rat [7] = conditions: Multigenerational reproductive toxicity study, sprague dawley, Oral, Feed, dose end: 2 generation
mouse [8] = conditions: Subchronic oral toxicity in rodents, cd1, Feed, dose end: 3 month, group: systemic
rat [9] = conditions: Subchronic oral toxicity in rodents, Feed, dose end: 13 week, group: systemic
dog [10] = conditions: Chronic toxicity, beagle, Oral, Feed, dose end: 52 week, group: systemic
rabbit [11] = conditions: Prenatal developmental toxicity study, dutch, Oral, Gavage/Intubation, dose end: 18 GD
dog [12] = conditions: Chronic toxicity; beagle; Oral; Feed; dose end: 53 week; group: cholinesterase; cholinesterase / cholinesterase / cholinesterase / erythrocyte cholinesterase (che) + cholinesterase / cholinesterase / cholinesterase / …
mouse [13] = conditions: Combined chronic toxicity/carcinogenicity, b6c3f1, Oral, Feed, dose end: 102 week
rat [14] = conditions: Subchronic oral toxicity in rodents, fischer, Feed, dose end: 13 week, group: systemic, systemic / in life observation / body weight / body weight
rat [15] = conditions: Multigenerational reproductive toxicity study, sprague dawley, Oral, Feed, dose end: 2 generation; remark: listed apart in the source
rat [16] = conditions: Combined chronic toxicity/carcinogenicity, fischer, Oral, Feed, dose end: 2 year
rabbit [17] = conditions: Prenatal developmental toxicity study, chinchilla, Oral, Gavage/Intubation, dose end: 18 GD
mouse [18] = conditions: Combined chronic toxicity/carcinogenicity, b6c3f1, Oral, Feed, dose end: 2 year, group: systemic
[19] = group: developmental, systemic / in life observation / body weight / fetal weight
[20] = group: maternal, reproductive / reproductive performance / resorptions / resorptions
[21] = group: maternal, systemic / in life observation / body weight / body weight gain + systemic / in life observation / clinical signs / abnormal movements + …
[22] = systemic / hematology / hematocrit (hct) / hematocrit (hct) + systemic / hematology / hemoglobin (hgb) / hemoglobin (hgb) + systemic / …
[23] = systemic / pathology microscopic / liver / hypertrophy
[24] = systemic / pathology microscopic / liver / hypertrophy + systemic / clinical chemistry / alkaline phosphatase (alp/alk) / alkaline …
[25] = group: developmental, developmental / developmental malformation / bone / short supernumerary + systemic / in life observation / body weight / fetal weight
[26] = group: maternal, reproductive / reproductive performance / implantations / implantations + reproductive / reproductive performance / resorptions / …
[27] = group: offspring, developmental / offspring survival late / viability index / viability index + systemic / in life observation / body weight / offspring (pup…
[28] = group: parental, systemic / in life observation / body weight / body weight + systemic / in life observation / food consumption / food consumption + systemic…
[29] = group: reproductive, reproductive / reproductive performance / dystocia / dystocia + reproductive / reproductive performance / gestational length / gestational …
[30] = systemic / pathology microscopic / liver / hypertrophy + systemic / clinical chemistry / alanine aminotransferase (alt/sgpt) / alanine …
[31] = systemic / pathology microscopic / liver / vacuolization
[32] = systemic / pathology microscopic / liver / vacuolization + systemic / clinical chemistry / cholesterol / cholesterol + systemic / clinical …
[33] = systemic / in life observation / body weight / body weight gain
[34] = systemic / in life observation / body weight / body weight gain + systemic / clinical chemistry / alkaline phosphatase (alp/alk) / alkaline …
[35] = group: cholinesterase, cholinesterase / cholinesterase / cholinesterase / brain cholinesterase (che) + cholinesterase / cholinesterase / cholinesterase / …
[36] = group: developmental, systemic / in life observation / body weight / fetal weight + developmental / developmental malformation / bone / unossified
[37] = group: maternal, systemic / in life observation / clinical signs / soft stools
[38] = group: maternal, systemic / in life observation / clinical signs / soft stools + reproductive / reproductive performance / resorptions / resorptions + …
[39] = group: cholinesterase, cholinesterase / cholinesterase / cholinesterase / plasma cholinesterase (che)
[40] = group: systemic, systemic / in life observation / body weight / body weight
[41] = group: systemic, systemic / in life observation / body weight / body weight + systemic / clinical chemistry / cholesterol / cholesterol + systemic / organ …
[42] = group: offspring, developmental / offspring survival late / [other] / [other] + developmental / offspring survival late / viability index / viability index + …
[43] = group: parental, systemic / pathology microscopic / epididymis / vacuolization
[44] = group: parental, systemic / pathology microscopic / epididymis / vacuolization + systemic / organ weight / epididymis / absolute
[45] = group: reproductive, reproductive / offspring survival early / birth index / birth index + reproductive / reproductive performance / fertility / fertility + …
[46] = group: systemic, systemic / in life observation / clinical signs / alopecia + systemic / in life observation / clinical signs / soft stools + systemic / in …
[47] = group: maternal, reproductive / reproductive performance / resorptions / resorptions + reproductive / reproductive performance / aborted / aborted + …
[48] = systemic / in life observation / clinical signs / fur (altered appearance) + systemic / pathology microscopic / skin / fibrosarcoma + …
[49] = systemic / pathology microscopic / skin / fibrosarcoma + systemic / pathology microscopic / skin / rhabdomyosarcoma + systemic / in life …

O=[N+]([O-])C(CO)(CO)CO [2-(Hydroxymethyl)-2-nitro-1,3-propanediol]
LEL (rat [1]; [19]): 750 mg/kg/day
LOAEL (rat [1]; [19]): > 750 mg/kg/day
NEL (rat [1]; [19]): 375 mg/kg/day
NOAEL (rat [1]; [19]): ≥ 750 mg/kg/day
LEL (rat [1]; [20]): 375 mg/kg/day
LOAEL (rat [1]; [21]): 750 mg/kg/day
NEL (rat [1]; [21]): 50 mg/kg/day
NOAEL (rat [1]; [21]): 375 mg/kg/day
LEL (rat [2]): 1000 mg/kg/day
LOAEL (rat [2]): > 1000 mg/kg/day
NEL (rat [2]): 500 mg/kg/day
NOAEL (rat [2]): ≥ 1000 mg/kg/day

N#CC(CCc1ccc(Cl)cc1)(Cn1cncn1)c1ccccc1 (stereo not given) [Fenbuconazole]
LEL (rat [3]; systemic / hematology / hematocrit (hct) / hematocrit (hct) + systemic / hematology / hemoglobin (hgb) / hemoglobin (hgb)): 3.03 mg/kg/day
NEL (rat [3]; [22]): 0.31 mg/kg/day
NOAEL (rat [3]; [22]): 3.03 mg/kg/day
LOAEL (rat [3]; systemic / pathology microscopic / thyroid gland / adenoma/carcinoma combined + systemic / organ weight / liver / absolute + systemic / …): 30.6 mg/kg/day
LOAEL (dog [4]; [23]): 13.3 mg/kg/day
NEL (dog [4]; [24]): 3.3 mg/kg/day
NOAEL (dog [4]; [24]): 3.3 mg/kg/day
LEL (dog [4]; systemic / pathology microscopic / liver / hypertrophy + systemic / organ weight / liver / absolute + systemic / organ weight / liver / …): 13.3 mg/kg/day
LEL (rat [5]; [25]): 150 mg/kg/day
LOAEL (rat [5]; [25]): > 150 mg/kg/day
NEL (rat [5]; [25]): 75 mg/kg/day
NOAEL (rat [5]; [25]): ≥ 150 mg/kg/day
LEL (rat [5]; [26]): 75 mg/kg/day
LOAEL (rat [5]; [26]): 75 mg/kg/day
NEL (rat [5]; [26]): 30 mg/kg/day
NOAEL (rat [5]; [26]): 30 mg/kg/day
LEL (mouse [6]): 26.3 mg/kg/day
LOAEL (mouse [6]): 26.3 mg/kg/day
NEL (mouse [6]): 1.28 mg/kg/day
NOAEL (mouse [6]): 1.28 mg/kg/day
LEL (rat [7]; [27]): 40 mg/kg/day
LOAEL (rat [7]; [27]): 40 mg/kg/day
NEL (rat [7]; [27]): 4 mg/kg/day
NOAEL (rat [7]; [27]): 4 mg/kg/day
LOAEL (rat [7]; [28]): 40 mg/kg/day
NEL (rat [7]; [28]): 0.4 mg/kg/day
NOAEL (rat [7]; [28]): 4 mg/kg/day
LEL (rat [7]; group: parental, systemic / organ weight / liver / absolute + systemic / organ weight / liver / relative to body weight): 4 mg/kg/day
LEL (rat [7]; [29]): 40 mg/kg/day
LOAEL (rat [7]; [29]): 40 mg/kg/day
NEL (rat [7]; [29]): 4 mg/kg/day
NOAEL (rat [7]; [29]): 4 mg/kg/day
LEL (mouse [8]; [23]): 11.1 mg/kg/day
LOAEL (mouse [8]; [23]): 11.1 mg/kg/day
NEL (mouse [8]; [30]): 3.8 mg/kg/day
NOAEL (mouse [8]; [30]): 3.8 mg/kg/day
LEL (rat [9]; [31]): 5.1 mg/kg/day
LOAEL (rat [9]; [31]): 5.1 mg/kg/day
NEL (rat [9]; [32]): 1.3 mg/kg/day
NOAEL (rat [9]; [32]): 1.3 mg/kg/day
LEL (dog [10]; [33]): 3.75 mg/kg/day
LOAEL (dog [10]; [33]): 3.75 mg/kg/day
NEL (dog [10]; [34]): 0.38 mg/kg/day
NOAEL (dog [10]; [34]): 0.38 mg/kg/day

COP(=S)(OC)Oc1ccc(SC)c(C)c1 [Fenthion]
LEL (rabbit [11]; [35]): 2.75 mg/kg/day
LOAEL (rabbit [11]; [35]): 2.75 mg/kg/day
NEL (rabbit [11]; [35]): 1 mg/kg/day
NOAEL (rabbit [11]; [35]): 1 mg/kg/day
LEL (rabbit [11]; [19]): 2.75 mg/kg/day
LOAEL (rabbit [11]; [36]): > 7.5 mg/kg/day
NEL (rabbit [11]; [36]): 1 mg/kg/day
NOAEL (rabbit [11]; [36]): ≥ 7.5 mg/kg/day
LEL (rabbit [11]; [37]): 2.75 mg/kg/day
LOAEL (rabbit [11]; [37]): 2.75 mg/kg/day
NEL (rabbit [11]; [38]): 1 mg/kg/day
NOAEL (rabbit [11]; [38]): 1 mg/kg/day
LEL (dog [12]): 0.258 mg/kg/day
LOAEL (dog [12]): 0.258 mg/kg/day
NEL (dog [12]): 0.056 mg/kg/day
NOAEL (dog [12]): 0.056 mg/kg/day
LEL (mouse [13]; [39]): 0.03 mg/kg/day
LOAEL (mouse [13]; [39]): 0.03 mg/kg/day
NEL (mouse [13]; [39]): < 0.03 mg/kg/day
NOAEL (mouse [13]; [39]): < 0.03 mg/kg/day
LEL (mouse [13]; [40]): 1.95 mg/kg/day
LOAEL (mouse [13]; [40]): 1.95 mg/kg/day
NEL (mouse [13]; [41]): 0.4 mg/kg/day
NOAEL (mouse [13]; [41]): 0.4 mg/kg/day
LEL (rat [14]): 16 mg/kg/day
LOAEL (rat [14]): 16 mg/kg/day
NEL (rat [14]): 8 mg/kg/day
NOAEL (rat [14]): 8 mg/kg/day
LEL (rat [15]; [35]): 0.7 mg/kg/day
LOAEL (rat [15]; [35]): 0.7 mg/kg/day
NEL (rat [15]; [35]): 0.1 mg/kg/day
NOAEL (rat [15]; [35]): 0.1 mg/kg/day
LEL (rat [15]; [42]): 5 mg/kg/day
LOAEL (rat [15]; [42]): > 5 mg/kg/day
NEL (rat [15]; [42]): 0.7 mg/kg/day
NOAEL (rat [15]; [42]): ≥ 5 mg/kg/day
LEL (rat [15]; [43]): 0.7 mg/kg/day
LOAEL (rat [15]; [43]): 0.7 mg/kg/day
NEL (rat [15]; [44]): 0.1 mg/kg/day
NOAEL (rat [15]; [44]): 0.1 mg/kg/day
LEL (rat [15]; [45]): 5 mg/kg/day
LOAEL (rat [15]; [45]): > 5 mg/kg/day
NEL (rat [15]; [45]): 0.7 mg/kg/day
NOAEL (rat [15]; [45]): ≥ 5 mg/kg/day
LEL (rat [16]; [35]): 0.07 mg/kg/day
LOAEL (rat [16]; [35]): 0.07 mg/kg/day
NEL (rat [16]; [35]): < 0.07 mg/kg/day
NOAEL (rat [16]; [35]): < 0.07 mg/kg/day
LEL (rat [16]; [46]): 0.3 mg/kg/day
LOAEL (rat [16]; [46]): 0.3 mg/kg/day
NEL (rat [16]; [46]): 0.07 mg/kg/day
NOAEL (rat [16]; [46]): 0.07 mg/kg/day
LEL (rabbit [17]; [19]): 18 mg/kg/day
LOAEL (rabbit [17]; [19]): 18 mg/kg/day
NEL (rabbit [17]; [19]): 6 mg/kg/day
NOAEL (rabbit [17]; [19]): 6 mg/kg/day
LEL (rabbit [17]; [20]): 6 mg/kg/day
LOAEL (rabbit [17]; [20]): 6 mg/kg/day
NEL (rabbit [17]; [47]): 2 mg/kg/day
NOAEL (rabbit [17]; [47]): 2 mg/kg/day
LOAEL (mouse [18]; [48]): > 3 mg/kg/day
NOAEL (mouse [18]; [48]): ≥ 3 mg/kg/day
LEL (mouse [18]; [49]): 1.5 mg/kg/day
NEL (mouse [18]; [49]): < 1.5 mg/kg/day

Reference: EPA's ToxRefDB 2
